Results from ChEMBL document CHEMBL6096728, “Simultaneous Induction of Immunogenic Pyroptosis and PD-L1 Downregulation by One Single Photosensitizer for Synergistic Cancer Photoimmunotherapy” (J Med Chem, 2025).
Active and inactive are the calls of the source. The calls are words filed in the database; no cut-off is given here.

Legend:
4T1 [1] = experiment: Antitumor immunity against mouse 4T1 cells implanted in BALB/c mouse model assessed as increase in proportion of tumor infiltrating CD8+ T cells at 25 mg/kg, iv measured after 14 days under light irradiation of 300 mW.cm/2 at 400 to 700nm measured after 5 mins by immunofluorescence analysis; type: functional, organism-based; conditions: time 14.0 day
4T1 [2] = experiment: (§1) Induction of intracellular ROS generation in mouse 4T1 cells assessed as increase in fluorescence intensity at 0.1 uM preincubated for 2 hrs followed by compound washout further incubated with DCFH-DA probe for 30 mins under light irradiation of 20 mW.cm/2 at 400 to 700nm measured after 10 mins by flow cytometry analysis; type: functional, cell-based
[3] = Toxicity in BALB/c mouse assessed as effect on heart at 25 mg/kg, iv measured after 14 days under light irradiation of 300 mW.cm/2 at 400 to 700nm measured after 5 mins by H and E staining based analysis; type: organism-based; conditions: in vivo, 336 h, 0.7 µM, time 14 day
MDA-MB-231 [4] = experiment: Induction of pyroptosis in human MDA-MB-231 cells assessed as appearance of large bubbles in cell at 0.5 uM preincubated with compound for 4 hrs followed by light irradiation of 20 mW.cm/2 at 400 to 700nm for 10 mins by confocal fluorescence microscopy analysis; type: functional, cell-based
MDA-MB-231 [5] = experiment: Inhibition of human MDA-MB-231 cells at 0.1 uM under light irradiation of 20 mW.cm/2 at 400 to 700nm measured after 14 days by crystal violet staining based assay; type: functional, cell-based; conditions: time 14.0 day
MDA-MB-231 [6] = experiment: Induction of pyroptosis in human MDA-MB-231 cells assessed as effect on GSDMD-N expression level at 0.1 to 0.5 uM preincubated with compound for 12 hrs followed by light irradiation of 20 mW.cm/2 at 400 to 700nm for 10 mins by Western blot analysis; type: functional, cell-based; conditions: dose 0.1-0.5 µM
MDA-MB-231 [7] = experiment: as §1, with “human MDA-MB-231” for “mouse 4T1”; type: functional, cell-based
MDA-MB-231 [8] = experiment: Induction of pyroptosis in human MDA-MB-231 cells assessed as increase in LDH release at 0.1 to 0.5 uM incubated for 12 hrs under light irradiation of 20 mW.cm/2 at 400 to 700nm for 10 mins; type: functional, cell-based; conditions: dose 0.1-0.5 µM
[9] = Toxicity in BALB/c mouse assessed as change in body weight at 25 mg/kg, iv measured after 14 days under light irradiation of 300 mW.cm/2 at 400 to 700nm measured after 5 mins; type: organism-based; conditions: in vivo, 336 h, time 14 day
4T1 [10] = experiment: as §1, with “10 mins in presence of NaN3 by flow” for “10 mins by flow”; type: functional, cell-based
[11] = Drug accumulation in BALB/c mouse tumor implanted with mouse 4T1 cells assessed as increase in fluorescence intensity at 25 mg/kg, iv measured after 0 to 3 hrs by imaging based analysis; type: ADME, organism-based, Neoplasm; conditions: in vivo, time 0-3 hrs
[12] = Toxicity in BALB/c mouse assessed as change in body weight at 25 mg/kg, iv measured after 14 days; type: organism-based; conditions: in vivo, 336 h, time 14 day
4T1 [13] = experiment: Antitumor activity against mouse 4T1 cells implanted in BALB/c mouse model assessed as reduction in tumor volume at 25 mg/kg, iv measured after 14 days; type: functional, organism-based; conditions: time 14.0 day
[14] = Drug uptake in mouse 4T1 cells assessed as increase in fluorescence intensity at 2.5 uM measured after 10 mins by flow cytometry analysis; type: ADME, cell-based; conditions: 4t1, 10 min
MDA-MB-231 [15] = experiment: Photocytotoxicity in human MDA-MB-231 cells assessed as reduction in 3D multicellular spheroids diameter at 0.5 to 1 uM incubated for 24 hrs under light irradiation of 50 mW.cm/2 at 400 to 700nm measured after 10 mins in normoxia condition; type: functional, cell-based; conditions: dose 0.5-1 µM
4T1 [16] = experiment: Antitumor immunity against mouse 4T1 cells implanted in BALB/c mouse model assessed as increase in proportion of tumor infiltrating CD4+ T cells at 25 mg/kg, iv measured after 14 days under light irradiation of 300 mW.cm/2 at 400 to 700nm measured after 5 mins by immunofluorescence analysis; type: functional, organism-based; conditions: time 14.0 day
MDA-MB-231 [17] = experiment: Induction of pyroptosis in human MDA-MB-231 cells assessed as formation of bubble-like protrusion on plasma membrane at 0.25 uM preincubated with compound for 12 hrs followed by light irradiation of 20 mW.cm/2 at 400 to 700nm for 10 mins by microscopy analysis; type: functional, cell-based
[18] = Induction of singlet oxygen production in acetonitrile solution assessed as decrease in ABDA absorption under LED light irradiation at 20 mW.cm/2 measured upto 30 mins by microplate reader analysis; type: functional
[19] = Phototoxicity against mouse 4T1 cells preincubated for 24 hrs followed by light irradiation of 20 mW.cm/2 at 400 to 700nm for 10 mins under hypoxia condition by CCK-8 method; type: functional, cell-based; conditions: 4T1, light or radiation study
[20] = Toxicity in BALB/c mouse assessed as effect on WBC at 25 mg/kg, iv measured after 14 days under light irradiation of 300 mW.cm/2 at 400 to 700nm measured after 5 mins; type: organism-based; conditions: in vivo, 336 h, time 14 day
MDA-MB-231 [21] = experiment: Inhibition of STAT3 phosphorylation level in human MDA-MB-231 cells at 0.5 uM incubated for 24 hrs under light irradiation of 20 mW.cm/2 at 400 to 700nm for 10 mins by Western blot analysis; type: functional, cell-based
4T1 [22] = experiment: as §1, with “10 mins in presence of tiron by flow” for “10 mins by flow”; type: functional, cell-based
[23] = Toxicity in BALB/c mouse assessed as effect on kidney at 25 mg/kg, iv measured after 14 days under light irradiation of 300 mW.cm/2 at 400 to 700nm measured after 5 mins; type: organism-based; conditions: in vivo, 336 h, 0.7 µM, time 14 day
[24] = Toxicity in BALB/c mouse assessed as effect on tumor at 25 mg/kg, iv measured after 14 days by H and E staining based analysis; type: organism-based; conditions: in vivo, 336 h, time 14 day
4T1 [25] = experiment: Antitumor immunity against mouse 4T1 cells implanted in BALB/c mouse model assessed as increase of CD8+ T cells in lymph node at 25 mg/kg, iv measured after 14 days under light irradiation of 300 mW.cm/2 at 400 to 700nm measured after 5 mins […]; type: functional, organism-based; conditions: time 14.0 day
[26] = Phototoxicity against human MDA-MB-231 cells preincubated for 24 hrs followed by light irradiation of 20 mW.cm/2 at 400 to 700nm for 10 mins under hypoxia condition by CCK-8 method; type: functional, cell-based; conditions: MDA-MB-231, light or radiation study
[27] = Drug accumulation in BALB/c mouse tumor implanted with mouse 4T1 cells assessed as increase in fluorescence intensity at 25 mg/kg, iv measured after 3 hrs by imaging based analysis; type: ADME, organism-based, Neoplasm; conditions: in vivo
MDA-MB-231 [28] = experiment: Downregulation of PD-L1 expression level in human MDA-MB-231 cells at 0.1 to 0.5 uM incubated for 24 hrs under light irradiation of 20 mW.cm/2 at 400 to 700nm for 10 mins by Western blot analysis; type: functional, cell-based; conditions: dose 0.1-0.5 µM

With `O=c1cc2sc3cc(N4CCNCC4)ccc3nc-2c2ccccc12` the Activity (4T1 [1]) was “Active”, the Activity (4T1 [2]) was “Active” and the Activity [3] was “Non-toxic”. The Activity (MDA-MB-231 [4]) was “Active”, the inhibition (MDA-MB-231 [5]) was “Active” and the Activity (MDA-MB-231 [6]) was “inactive”. For the same compound, the Activity (MDA-MB-231 [7]) was “Active”, the Activity (MDA-MB-231 [8]) was “Active” and the Activity [9] was “Non-toxic”. For the same compound, the Activity (4T1 [10]) was “inactive”, the Drug uptake [11] was “Active” and the Activity [12] was “Non-toxic”. For the same compound, the Activity (4T1 [13]) was “Active”, the Drug uptake [14] was “Active” and the Activity (MDA-MB-231 [15]) was “Active”. The Activity (4T1 [16]) was “Active”, the Activity (MDA-MB-231 [17]) was “Active” and the Activity [18] was “Active”. For the same compound, the IC50 [19] was 693 nM, the Activity [20] was “Non-toxic” and the inhibition (MDA-MB-231 [21]) was “Active”. For the same compound, the Activity (4T1 [22]) was “inactive”, the Activity [23] was “Non-toxic” and the Activity [24] was “Toxic”. For the same compound, the Activity (4T1 [25]) was “Active”, the IC50 [26] was 303 nM and the Drug uptake [27] was “Active”. For the same compound, the Activity (MDA-MB-231 [28]) was “Active”.
